The results in this text go back to PubChem BioAssay (NCI).

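Cells were grown in 96-well plates and exposed to each compound for 48 hours at five concentrations; endpoints were interpolated linearly between bracketing concentrations, or set to the highest concentration if not reached. TGI: concentration producing complete growth inhibition.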 A value given as a limit tells only on which side of the number the result lay.

What all share (assay): DTP human tumour cell line panel, 48 h
Test [1] has as its system M19-MEL melanoma.
In test [2] the test system is KM20L2 colon.
For test [3], the system named is SNB-78 CNS.
For test [4], the system named is DMS 114 small cell lung.
The test system of test [5] is XF 498 CNS.
Test [6] concerns HOP-18 NSCLC.
Test [7] has as its system LXFL 529 NSCLC.
The test system of test [8] is DLD-1 colon.
The subject of test [9] is DMS 273 small cell lung.
Test [10] has as its system RXF-631 renal.

The TGI is the concentration at which net growth stops. As for `O=C(CC(=O)n1nc(-c2ccccc2)c(N=Nc2ccc([N+](=O)[O-])cc2)c1-c1ccccc1)Nc1ccc(Cl)cc1`, the TGI in test [1] is greater than 100 µM; in test [2], 24.9 µM; in test [3], greater than 100 µM; in test [4], 48.8 µM; in [5], 59.1 µM; in test [6] it was greater than 100 µM. The TGI in test [7], in [8], in [9] and in test [10] was greater than 100 µM in each case.
